Data taken from patent US20050171084A1, “Methods of treatment with lxr modulators” (priority 2002, published 2005).

Assays:
[1] = tested on: Cortical neurons; experiment: Neurite outgrowth in cortical neurons; format: cell-based, rat; details: CR neurons, 24 hours, standard error of triplicate wells in parentheses
Experimental: Cortical neurons: Cortex from gestational day 18-20 rat embryos were collected in HBSS on ice. Cells were dissociated as described for hippocampal neurons. Cells were pelted (200 g, 5 mins and resuspended in medium as described for hippocampal cells. Cells were plated at 6000 cells/well and cultured for 24 hours.
The test compound was solubilised in DMSO and added to culture medium at time of cell plating at a dilution of 1:1000. Vehicle only (1:1000) was added to culture medium of untreated controls. Cells were fixed with 4% paraformaldehyde for 1 hour on ice, washed with PBS and stained using Coomassie. Assays were quantified using a KS300 image analysis system (Imaging Associates, UK). For each cell measured, the length from the edge of the cell to the end of the longest neurite was measured for 100 cells/well for each treatment in triplicate. All data are means and SEM pooled from three independent experiments. Results are expressed as a percentage of the length of neurites of cells treated with vehicle alone.

[2] = tested on: Primary murine neuronal cultures; experiment: Cholesterol efflux from neurons; format: cell-based, mouse; details: standard deviation in parentheses
Experimental: Primary murine neuronal cultures were prepared from C57 B1/6 mice essentially as described elsewhere (23). In brief, embryonic day 18 fetuses were collected by caesarian section, their brains removed and the cerebral cortices dissected from the rest of the brain. The tissue was rinsed during these steps several times in Ca^2+- and Mg^2+-free Hank's balanced salt solution (HBSS, containing 1 mM HEPES, GIBCO). After the meninges were removed with forceps, the tissue was minced and incubated for 15 minutes at 37° C. in 0.25% trypsin (Sigma) in HBSS. The tissue was then washed twice in HBSS and twice in neuronal plating media (minimal essential media [MEM] containing 3 mg/ml glucose, 5% fetal bovine serum [FBS; GibcoBRL], 5% horse serum [HS; GibcoBRL], 100 U/ml penicillin/100 μg/ml streptomycin [Irvine Scientific] and 2 mM glutamine [Irvine Scientific]) to which 10 μg/ml DNAseI (Sigma) had been added. […] The resulting cell pellet was resuspended in plating media, and trypan blue-excluding surviving cells were counted in a hemacytometer. […]
Cholesterol efflux assays were performed as described elsewhere (24) with some modifications. […] Two hundred microliters of the culture media supernatant and 200 μl of the cell extract were counted for tritium in 2 ml Packard Ultima Gold Scint. […] Efflux is expressed as percent of the total radiolabeled cholesterol pool present in the cultures.

[3] = tested on: SREBP-1c; experiment: SREBP-1c gene expression in primary astrocyte cultures (QRT-PCR); format: cell-based, mouse; details: Astrocytes
Experimental: Total RNA was isolated from tissue and cell culture samples using TRIzol reagent (GibcoBRL). Briefly, tissue samples were thawed directly in 1 ml Trizol/50 mg tissue and homogenized with a polytron. To facilitate recovery of nucleic acid, 100 μg glycogen (Ambion) was added. Cultured cells were lysed in 1 ml Trizol containing 100 μg glycogen per well. Samples were then extracted in chloroform and spun at 4° C. at 11,000×g for 15 min. The aqueous phase was collected and the RNA was precipitated with the addition of isopropanol. The samples were then spun at 11,000×g at 4° C. for 15 min, the pellet washed in 75% ethanol, dried, and dissolved in water. Samples were stored at −70° C. until use.
Total RNA samples were diluted to 100 μg/ml and treated with 40 units/ml […] DNAse-I (Ambion) for 30 min at 37° C. followed by inactivation at 75° C. for 5 min. Samples were quantitated by spectrophotometry or with the RiboGreen assay (Molecular Probes) and diluted to a concentration of 10 ng/μl. […] In this system, the probe is degraded by Taq polymerase during the amplification phase, releasing the fluorescent tag from its quenched state; amplification data is expressed as the number of PCR cycles required to elevate the fluorescence signal beyond a threshold intensity level. […]

SREBP-1c expression normalized to vehicle-treated group (fold induction) [3] | Structure (SMILES) | length of longest neurite, percentage of cells treated with vehicle alone ([1]; 0.3 μm test compound) | length of longest neurite, percentage of cells treated with vehicle alone ([1]; 1.0 μm test compound) | length of longest neurite, percentage of cells treated with vehicle alone ([1]; 3.0 μm test compound) | length of longest neurite, percentage of cells treated with vehicle alone ([1]; 10.0 μm test compound) | Cholesterol efflux as a percentage of total [3H] cholesterol [2]
13.9 | O=C(O)Cc1cccc(OCCCN(Cc2cccc(C(F)(F)F)c2Cl)CC(c2ccccc2)c2ccccc2)c1 [Example 1, 2-(3-{3-[[2-Chloro-3-(trifluoromethyl)benzyl](2,2-diphenylethyl)amino]propoxy}-phenyl)acetic Acid] | 105 (1.79) % | 110 (2.4) % | 123.6 (6.6) % | 126.23 (2.5) % | 1.252 (0.179) %
20.2 | O=S(=O)(c1ccccc1)N(CC(F)(F)F)c1ccc(C(O)(C(F)(F)F)C(F)(F)F)cc1 [Example T0901317, N-(2,2,2-trifluoroethyl)-N-[4-(2,2,2-trifluoro-1-hydroxy-1-trifluoromethyl-ethyl)-phenyl]-benzenesulfonamide] |  |  |  |  | 1.427 (0.031) %
